Tests used:
SK-BR-3 cancer cells = assay: Inhibitory activity against proliferation of SK-BR-3 cancer cells (CellTiter-Glo); assay type: cell-based; details: Homo sapiens, SK-BR-3, 120 h, ErbB2-overexpressing SK-BR-3 cells, 120 hours after treatment
Method in brief: (§1)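 GI50 derived from % growth relative to control, measured by CellTiter-Glo luminescence after 120 h compound exposure (12 concentrations, 0.2 nM-5 μM final, n=3). BT-474 grown in RPMI-1640/20% FBS, SK-BR-3 in McCOY'S 5A/10% FBS; seeding 48 h pre-treatment.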

BT-474 cancer cells = assay: Inhibitory activity against proliferation of BT-474 cancer cells (CellTiter-Glo); assay type: cell-based; details: Homo sapiens, BT-474 ErbB2-overexpressing cancer cells, 120 hours after treatment
Method in brief: as §1

`C=CC(=O)Nc1cc(Nc2cc(N3OCC[C@@H]3c3cccc(-c4cccc(F)c4)c3)ncn2)c(OC)cc1N1CCN(C)C(=O)C1` [Example 288, (R)-N-(5-((6-(3-(3′-fluoro-[1,1′-biphenyl]-3-yl)-isoxazolidin-2-yl)-pyrimidin-4-yl)-amino)-4-meth-oxy-2-(4-methyl-3-oxopiperazin-1-yl)phenyl)acryl-amide] was tested, and the GI50 (SK-BR-3 cancer cells) was less than 50 nM and the GI50 (BT-474 cancer cells) was less than 50 nM.
With `C=CC(=O)Nc1cc(Nc2cc(N3OCC[C@@H]3c3cccc(-c4ccc(F)cc4F)c3)ncn2)c(OC)cc1N(C)CCN(C)C` [Example 279, (R)-N-(5-((6-(3-(2′,4′-difluoro-[1,1′-biphenyl]-3-yl)isoxazolidin-2-yl)pyrimidin-4-yl)amino)-2-((2-(dimethylamino)-ethyl)(methyl)-amino)-4-methoxy-phenyl)acrylamide] the GI50 (SK-BR-3 cancer cells) was less than 50 nM and the GI50 (BT-474 cancer cells) was less than 50 nM.
Work on `C=CC(=O)Nc1cc(Nc2cc(N3OCCC3c3cccc(OCc4ccccn4)c3)ncn2)c(OC)cc1N1CCC(N2CCN(C3CC3)CC2)CC1` (centres unmarked) [Example compound 98, N-(2-(4-(4-cyclopropylpiperazin-1-yl)piperidin-1-yl)-4-methoxy-5-((6-(3-(3-(pyridin-2-ylmethoxy)phenyl)isoxazolidin-2-yl)pyrimidin-4-yl)amino)phenyl)acrylamide] yielded a GI50 (SK-BR-3 cancer cells) of less than 50 nM and a GI50 (BT-474 cancer cells) of less than 50 nM.
With `C=CC(=O)Nc1cc(Nc2cc(N3OCC[C@@H]3c3cccc(OCc4ccccc4)c3)ncn2)c(OC)cc1N(C)CCN(C)C` [Example 227, (R)-N-(5-((6-(3-(3-(benzyloxy)-phenyl)isoxazol-idin-2-yl)pyrim-idin-4-yl)amino)-2-((2-(dimethyl-amino)ethyl)-(methyl)amino)-4-methoxyphen-yl)acrylamide] the GI50 (SK-BR-3 cancer cells) was less than 50 nM and the GI50 (BT-474 cancer cells) was less than 50 nM.
In the case of `C=CC(=O)Nc1cc(Nc2cc(N3OCC[C@@H]3c3cccc(-c4cnc(C)c(F)c4)c3)ncn2)c(OC)cc1N1CCN(C)CC1` [Example 302, (R)-N-(5-((6-(3-(3-(5-fluoro-6-meth-ylpyridin-3-yl)-phenyl)isoxazol-idin-2-yl)pyrim-idin-4-yl)amino)-4-methoxy-2-(4-methylpiperazin-1-yl)phenyl)acryl-amide], the GI50 (SK-BR-3 cancer cells) is reported as 50 to 500 nM and the GI50 (BT-474 cancer cells) is reported as less than 50 nM.
`C=CC(=O)Nc1cc(Nc2cc(N3OCC[C@@H]3c3cccc(-c4cccc(F)c4)c3)ncn2)c(OC)cc1N1CCC(N2CCN(S(C)(=O)=O)CC2)CC1` [Example 324, (R)-N-(5-((6-(3-(3′-fluoro-[1,1′-biphenyl]-3-yl)-isoxazolidin-2-yl)-pyrimidin-4-yl)-amino)-4-methoxy-2-(4-(4-(methyl-sulfonyl)piperazin-1-yl)piperidin-1-yl)-phenyl)acrylamide] gave a GI50 (SK-BR-3 cancer cells) of less than 50 nM and a GI50 (BT-474 cancer cells) of less than 50 nM.
`C=CC(=O)Nc1cc(Nc2cc(N3OCC[C@@H]3c3cccc(-c4cccc(F)c4)c3)ncn2)c(OC)cc1N1CCN(CCN(C)C)CC1` [Example 304, (R)-N-(2-(4-(2-(dimethylamino)-ethyl)piperazin-1-yl)-5-((6-(3-(3′-fluoro-[1,1′-biphen-yl]-3-yl)isoxazol-idin-2-yl)pyrim-idin-4-yl)amino)-4-methoxyphenyl)-acrylamide] was tested, and the GI50 (SK-BR-3 cancer cells) was less than 50 nM and the GI50 (BT-474 cancer cells) was less than 50 nM.
With `C=CC(=O)Nc1cc(Nc2cc(N3OCC[C@@H]3c3cccc(-c4cccc(F)c4)c3)ncn2)c(OC)cc1N1CCO[C@@H](C)C1` [Example 286, N-(5-((6-((R)-3-(3′-fluoro-[1,1′-biphenyl]-3-yl)-isoxazolidin-2-yl)-pyrimidin-4-yl)-amino)-4-methoxy-2-((S)-2-methyl-morpholino)phen-yl)acrylamide] the GI50 (SK-BR-3 cancer cells) was less than 50 nM and the GI50 (BT-474 cancer cells) was less than 50 nM.
Work on `C=CC(=O)Nc1cc(Nc2cc(N3OCC[C@@H]3c3cccc(-c4cnc(C)c(F)c4)c3)ncn2)c(OC)cc1N(C)CCN(C)C` [Example 303, (R)-N-(2-((2-(dimethylamino)-ethyl)(methyl)-amino)-5-((6-(3-(3-(5-fluoro-6-methylpyridin-3-yl)phenyl)isoxazol-idin-2-yl)pyrim-idin-4-yl)amino)-4-methoxyphenyl)-acrylamide] yielded a GI50 (SK-BR-3 cancer cells) of less than 50 nM and a GI50 (BT-474 cancer cells) of less than 50 nM.
`C=CC(=O)Nc1cc(Nc2cc(N3OCCC3c3cccc(-c4cnc5ccnn5c4)c3)ncn2)c(OC)cc1N1CCN(C)CC1` (centres unmarked) [Example 201, N-(4-methoxy-2-(4-methylpiper-azin-1-yl)-5-((6-(3-(3-(pyrazolo-[1,5-a]pyrimidin-6-yl)phenyl)-isoxazolidin-2-yl)-pyrimidin-4-yl)-amino)phenyl)-acrylamide] gave a GI50 (SK-BR-3 cancer cells) of less than 50 nM and a GI50 (BT-474 cancer cells) of less than 50 nM.
For `C=CC(=O)Nc1cc(Nc2cc(N3OCCC3c3cccc(OCc4ccccn4)c3)ncn2)c(OC)cc1N(C)CCN(C)C` (centres unmarked) [Example compound 95, N-(2-((2-(dimethylamino)ethyl)(methyl)amino)-4-methoxy-5-((6-(3-(3-(pyridin-2-ylmethoxy)phenyl)isoxazolidin-2-yl)pyrimidin-4-yl)amino)phenyl)acrylamide], the GI50 (SK-BR-3 cancer cells) was less than 50 nM and the GI50 (BT-474 cancer cells) was less than 50 nM.
`C=CC(=O)Nc1cc(Nc2cc(N3OCC[C@@H]3c3cccc(-c4cccc(F)c4)c3)ncn2)c(OC)cc1N1CCN(C)CC1` [Example 242, (R)-N-(5-((6-(3-(3′-fluoro-[1,1′-biphen-yl]-3-yl)isoxazol-idin-2-yl)pyrim-idin-4-yl)amino)-4-methoxy-2-(4-methylpiperazin-1-yl)phenyl)-acrylamide] showed a GI50 (SK-BR-3 cancer cells) of less than 50 nM and a GI50 (BT-474 cancer cells) of less than 50 nM.
`C=CC(=O)Nc1cc(Nc2cc(N3OCCC3c3ccc(F)c(OCc4cccc(F)c4)c3)ncn2)c(OC)cc1N1CCN(C)CC1` (centres unmarked) [Example compound 151, N-(5-((6-(3-(4-fluoro-3-((3-fluorobenzyl)oxy)phenyl)isoxazolidin-2-yl)pyrimidin-4-yl)amino)-4-methoxy-2-(4-methylpiperazin-1-yl)phenyl)acrylamide] was tested, and the GI50 (SK-BR-3 cancer cells) was less than 50 nM and the GI50 (BT-474 cancer cells) was less than 50 nM.
With `C=CC(=O)Nc1cc(Nc2cc(N3OCC[C@@H]3c3cccc(C(=O)NC(C)C)c3)ncn2)c(OC)cc1N1CCC(N2CCN(C3CC3)CC2)CC1` [Example 253, (R)-3-(2-(6-((5-acrylamido-4-(4-(4-cyclopropyl-piperazin-1-yl)-piperidin-1-yl)-2-methoxyphenyl)-amino)pyrimidin-4-yl)isoxazolidin-3-yl)-N-isopropyl-benzamide] the GI50 (SK-BR-3 cancer cells) was less than 50 nM and the GI50 (BT-474 cancer cells) was less than 50 nM.
`C=CC(=O)Nc1cc(Nc2cc(N3OCC[C@@H]3c3cccc(-c4ccc(F)cc4F)c3)ncn2)c(OC)cc1N1CCN(C)CC1` [Example 281, (R)-N-(5-((6-(3-(2′,4′-difluoro-[1,1′-biphenyl]-3-yl)isoxazolidin-2-yl)pyrimidin-4-yl)-amino)-4-methoxy-2-(4-methylpiper-azin-1-yl)phenyl)-acrylamide] showed a GI50 (SK-BR-3 cancer cells) of less than 50 nM and a GI50 (BT-474 cancer cells) of less than 50 nM.
For `C=CC(=O)Nc1cc(Nc2cc(N3OCC[C@@H]3c3cccc(-c4cccc(C(F)(F)F)c4F)c3)ncn2)c(OC)cc1N1CCN(C)CC1` [Example 282, (R)-N-(5-((6-(3-(2′-fluoro-3′-(tri-fluoromethyl)-[1,1′-biphenyl]-3-yl)isoxazolidin-2-yl)pyrimidin-4-yl)-amino)-4-methoxy-2-(4-methylpiper-azin-1-yl)phenyl)-acrylamide], the GI50 (SK-BR-3 cancer cells) was 50 to 500 nM and the GI50 (BT-474 cancer cells) was less than 50 nM.
`C=CC(=O)Nc1cc(Nc2cc(N3OCC[C@@H]3c3cccc(-c4cccc(F)c4)c3)ncn2)c(OC)cc1N1CCN(S(C)(=O)=O)CC1` [Example 294, (R)-N-(5-((6-(3-(3′-fluoro-[1,1′-biphenyl]-3-yl)-isoxazolidin-2-yl)-pyrimidin-4-yl)-amino)-4-methoxy-2-(4-(methylsulfon-yl)piperazin-1-yl)-phenyl)acrylamide] gave a GI50 (SK-BR-3 cancer cells) of less than 50 nM and a GI50 (BT-474 cancer cells) of less than 50 nM.
Compound `C=CC(=O)Nc1cc(Nc2cc(N3OCC[C@@H]3c3cccc(-c4cc(F)cc(C(F)(F)F)c4)c3)ncn2)c(OC)cc1N1CCN(C)CC1` [Example 283, (R)-N-(5-((6-(3-(3′-fluoro-5′-(trifluoromethyl)-[1,1′-biphenyl]-3-yl)isoxazolidin-2-yl)pyrimidin-4-yl)-amino)-4-methoxy-2-(4-methylpiper-azin-1-yl)phenyl)-acrylamide] has a GI50 (SK-BR-3 cancer cells) of 50 to 500 nM and a GI50 (BT-474 cancer cells) of less than 50 nM.
In the case of `C=CC(=O)Nc1cc(Nc2cc(N3OCC[C@@H]3c3cccc(-c4cc(F)cc(F)c4)c3)ncn2)c(OC)cc1N1CCC(N2CCN(C3CC3)[C@@H](C)C2)CC1` [Example 274, N-(2-(4-((S)-4-cyclopropyl-3-methylpiperazin-1-yl)piperidin-1-yl)-5-((6-((R)-3-(3′,5′-difluoro-[1,1′-biphenyl]-3-yl)isoxazolidin-2-yl)pyrimidin-4-yl)amino)-4-meth-oxyphenyl)acryl-amide], the GI50 (SK-BR-3 cancer cells) is reported as less than 50 nM and the GI50 (BT-474 cancer cells) is reported as less than 50 nM.
Compound `C=CC(=O)Nc1cc(Nc2cc(N3OCC[C@@H]3c3cccc(-c4cccc(F)c4)c3)ncn2)c(OC)cc1N1CCN(C(C)=O)CC1` [Example 289, (R)-N-(2-(4-acetyl-piperazin-1-yl)-5-((6-(3-(3′-fluoro-[1,1′-biphenyl]-3-yl)isoxazolidin-2-yl)pyrimidin-4-yl)-amino)-4-methoxy-phenyl)acrylamide] has a GI50 (SK-BR-3 cancer cells) of less than 50 nM and a GI50 (BT-474 cancer cells) of less than 50 nM.
With `C=CC(=O)Nc1cc(Nc2cc(N3OCC[C@@H]3c3cccc(C#Cc4cccc(F)c4)c3)ncn2)c(OC)cc1N1CCN(C)CC1` [Example 314, (R)-N-(5-((6-(3-(3-((3-fluorophen-yl)ethynyl)phenyl)-isoxazolidin-2-yl)-pyrimidin-4-yl)-amino)-4-methoxy-2-(4-methylpiper-azin-1-yl)phenyl)-acrylamide] the GI50 (SK-BR-3 cancer cells) was 50 to 500 nM and the GI50 (BT-474 cancer cells) was 50 to 500 nM.
In the case of `C=CC(=O)Nc1cc(Nc2cc(N3OCC[C@@H]3c3cccc(-c4cccc(F)c4)c3)ncn2)c(OC)cc1N1C[C@H]2C[C@@H]1CO2` [Example 287, N-(2-((1R,4R)-2-oxa-5-azabicyclo-[2.2.1]heptan-5-yl)-5-((6-((R)-3-(3′-fluoro-[1,1′-biphenyl]-3-yl)-isoxazolidin-2-yl)-pyrimidin-4-yl)-amino)-4-meth-oxyphenyl)acryl-amide], the GI50 (SK-BR-3 cancer cells) is reported as less than 50 nM and the GI50 (BT-474 cancer cells) is reported as less than 50 nM.

From patent US20240262815A1, “HETEROARYL DERIVATIVE, METHOD FOR PREPARING SAME, AND PHARMACEUTICAL COMPOSITION COMPRISING SAME AS ACTIVE INGREDIENT” (VORONOI INC., priority 2021, published 2024)
